According to patent US11273201B2, “Compositions and methods for inducing thrombopoiesis” (Hadasit Medical Research Services and Development Ltd., priority 2013, dated 2022):

How the values were obtained:
[1] = tested on: Livin, Survivin, XIAP; experiment: Western blot of IAP family proteins during LAMA-84 differentiation; type: cell-based, Human
Protocol: Whole cell lysates were prepared from 0.25-1×10^6 cells using 100 μl lysis buffer [20 mM Tris-HCl, 2 mM EDTA, 6 mM β-Mercaptoethanol, 1% Nonidet P-40 (NP-40), 0.1% SDS and protease inhibitors] at 4° C. for 20 min, with vigorous vortex mixing. Antibodies used were: monoclonal antibody against Livin (clone 88C570) (Imgenex, USA) diluted 1:3000 and Survivin 6E4 monoclonal antibody (Cell Signaling Technology, USA), followed by Envision-HRP (DAKO, Denmark) as a secondary antibody; Polyclonal antibody against XIAP (Cell Signaling Technology, USA), followed by anti-rabbit IgG HRP-linked antibody (Cell Signaling Technology, USA) as a secondary antibody. For immunoprecipitation, equal amounts of protein lysates were pre-cleared with Protein A/G-Agarose (Santa Cruz, USA) together with 1 μg of mouse IgG. Livin was immunoprecipitated from the cleared lysates (using clone 88C570) and the immune complexes were precipitated with Protein A/G-Agarose.
The expression of anti-apoptotic proteins of the […] (IAPs) during the differentiation of LAMA-84 cells towards MKs was analyzed by Western blot analysis. […] Note that in contrast to Livin, the level of Survivin decreased when cells were treated with PMA (FIG. 2E).

[2] = tested on: LAMA-84 derived PLPs; experiment: Aggregation of LAMA-84 derived platelet-like particles (AGGRAM aggregometer); type: cell-based, Human; conditions: PMA treated LAMA-84 culture-derived PLPs
Protocol: Platelets and Platelet like particles generated from platelets-poor plasma e.g. LAMA-84 differentiated cells were tested for their functionality in aggregation assays using an AGGRAM aggregometer (Helena Laboratories, Beaumont, Tex.) according to the manufacturer's instructions using various agonists: adenosine diphosphate (ADP) (11 μM), arachidonic acid (AA) (1.6 μM), Epinephrine (50 μM), Ristocetin (1.6 mM) (Diamed AG, Morat, Switzerland) or collagen (5 μg/ml) (Helena Laboratories, Beaumont, Tex.).

[3] = tested on: LAMA-84 cells; experiment: PMA-induced megakaryocytic differentiation of LAMA-84 cells (morphology, CD41/CD71 flow cytometry, PI ploidy); type: cell-based, Human
Protocol: LAMA-84 cells were maintained in RPMI1640 containing 10% fetal calf serum, 100 U/ml penicillin, 100 μg/ml streptomycin and 2 mM glutamine. To induce differentiation, the cell culture was supplemented with 0.6-5 ng/ml PMA or 50 μM Hemin and cells were harvested and analyzed 1-5 days following treatment.
(§1) To determine the extent of maturation toward MKs 1×10^6 cultured cells (LAMA-84 or CD34+ cells) were washed and then labeled with anti-CD41-FITC (GpIIb/IIIa, BD Bioscience, USA), or anti CD71-FITC or combination of anti-CD33-FITC, anti-CD41-PE, and CD34-APC (Beckman Coulter, USA) and analyzed using FACScalibur (Becton Dickinson, USA) for the percentage of CD41^+ cells generated.
(§2) To determine the amount of ploidy, differentiated LAMA-84 cells were fixed overnight in 75% ethanol at 4° C., labeled with propidium iodide (PI, 50 μg/ml) and analyzed using FACScalibur. Fourteen day differentiated CD34+ were analyzed quantitatively under a microscope following May Grumwald/Giemsa staining for the number of nuclei per cell. Only cells with MK morphology were analyzed.
LAMA-84 cell differentiation following PMA treatment was studied via morphological staining of the cells with May Grunwald/Giemsa and via flow cytometry analysis of CD41 (MK marker) and CD71 (erythroid marker) expression. Moreover, ploidy, a marker of MK differentiation, was also determined by flow cytometry using propidium iodide (PI). A range of PMA concentrations was tested and differentiation was obtained at 0.6-10 ng/ml PMA.

[4] = tested on: LAMA-84 cells; experiment: Release of CD41+ platelet-like particles from LAMA-84 cultures (flow cytometry); type: cell-based, Human
Protocol: (§3) Platelets release into the differentiated cultures was assessed via flow cytometry analysis of the supernatants. Specifically, the culture medium was collected and centrifuged at 150×g for 20 minutes to remove the nucleated cells. The supernatant was then centrifuged at 500×g for 20 minutes to pellet the platelets. Sediments containing platelets and platelet-like particles were resuspended in culture medium in 500 μl aliquots and labeled using anti-CD41-FITC. Cells were analyzed by FACScalibur for CD41 expression and log amplification of forward scatter (FCS) and side scatter (SSC).

[5] = tested on: Human CD34+ cells; experiment: Megakaryocyte differentiation of cord blood CD34+ cells with SCF and TPO (CD41, CD33, nuclei number, Western blot); type: cell-based
Protocol: Human CD34+ cells were cultured in Iscove's medium (IMDM) (1×10^5 cells/well) and induced to differentiate into MKs in the presence of 10 ng/ml stem cell factor (SCF) and 50 ng/ml thrombopoietin (TPO), freshly supplemented every 3 days. Cells were harvested and analyzed on day 14.
293T cells were infected to produce the virus and supernatant from 48 and 72 hours were infected into both LAMA-84 and CD34+ cells during their differentiation induction phase. In order to over-express Livin both LAMA-84 and CD34+ cells were infected following 1 day of differentiation with pWZL IRES-blasticidin vector expressing wild-type Livin (Livin β), LivinRING (Livin β RING), or empty vector (EV). For down-regulating expression of endogenous Livin, LAMA-84 were transfected by electroporation with pSUPER-Livin-2 (Livin siRNA) or pSUPER-luc (control siRNA) vectors^35 together with pWZL IRES-blasticidin 1 day following differentiation initiation. For down-regulating expression of endogenous Livin in CD34+ cells, cells were infected 1 day after differention with supernatant containing the pSUPER viruses generated by 293T cells.
as §1, §2
To investigate the effect of Livin on primary MK progenitors, human CD34+ cells isolated from cord blood samples, were transduced with Livin, LivinRING or control empty vector and grown for 14 days under MK differentiating conditions with the addition of stem cell factor (SCF) and thrombopoeitin (TPO)^41. At the terminal stages of primary MKs maturation CD34+ cell cultures were examined morphologically, analyzed for CD41 expression and polyploidy via flow cytomery, and Livin expression and cleavage via Western Blot.

[6] = tested on: platelets derived from CD34+ cultures; experiment: Platelet activation by CD62P expression, platelets from CD34+ cultures; type: cell-based, Human; conditions: platelets from over-expressing CD34+ cultures
Protocol: Since the number of platelets generated from CD34+ cultures was low, platelets derived from these cultures were stimulated for 15 minutes at room temperature (RT) with ADP or AA and activation was assessed via flow cytometry analysis of CD62P (Pselectin)-PE (Beckman Coulter) expression (up regulation of CD62P implies activation).

[7] = tested on: Human CD34+ cells; experiment: CD41+ platelets released from differentiated CD34+ cultures (flow cytometry); type: cell-based; conditions: day 14, SCF and TPO
Protocol: as §3
The following experiments evaluated whether functional platelets were generated from the human CD34^+ cell cultures that were transduced with Livin, LivinRING or control empty vector and grown for 14 days under MK differentiating conditions with the addition of SCF and TPO. Platelets released into the media were characterized for CD41 expression and functionality by CD62P up regulation via flow cytometry.

[8] = tested on: caspase-3; experiment: Caspase-3 activity in LAMA-84 cell extracts (CaspACE colorimetric); type: cell-based, Human; conditions: day 4, PMA treated LAMA-84 stably over-expressing construct
Protocol: Extracts from 1×10^6 cells were prepared by the freeze-thaw method assayed for caspase-3 activity using CaspACE™ Assay System, Colorimetric (Promega, USA), according to manufacturer's instructions.
To address the mechanism of action of Livin in MKs differentiation, LAMA-84 cells were stably transfected to over-express Livin and the expression and effects of Livin protein during MKs differentiation were tested by means of Western blot analysis, caspase-3 activity, CD41 expression evaluated by flow cytometry and platelets functionality evaluated by aggregation assay (FIGS. 4A-4D). Specifically, control LAMA-84 cells (EV, empty vector) and LAMA-84 cells stably over expressing wild-type Livin or Livin mutant lacking pro-apoptotic activity (LivinRING) were treated with PMA for 5 Days. Cells were harvested at 12, 24, 48 and 96 hours for evaluation.

Molecule: CCCCCCCCCCCCCC(=O)O[C@@H]1[C@@H](C)[C@@]2(O)[C@@H](C=C(CO)C[C@]3(O)C(=O)C(C)=C[C@@H]23)[C@@H]2C(C)(C)[C@]12OC(C)=O [PMA, Phorbol myristate acetate]
- Level of full length XIAP ([1]; PMA differentiation, cleaved 30 kDa fragment appears): dose dependent significant decrease
- Livin protein expression ([1]; PMA-induced differentiation, not detected in untreated cells): up-regulated
- Survivin level ([1]; cells treated with PMA): decreased
- Aggregation of PLPs in response to Epinephrine, collagen, ADP [2]: aggregated
- Ploidy (PI flow cytometry) ([3]; 4 days of exposure to 5 ng/ml PMA): underwent polyploidization (8N, 16N and 32N)
- CD41 expression (percent CD41 positive cells) ([3]; 4 days, 5 ng/ml PMA, untreated 8.8%±5.6%): 81.9%±10%
- Morphology (May Grunwald/Giemsa) ([3]; LAMA-84 cells after PMA induction): marked increase in cell size and extensive multinuclearity
- PMA concentration at which differentiation was obtained ([3]; LAMA-84 cells, range of PMA concentrations tested): 0.6 to 10 ng/mL
- Percentage of CD41+ PLPs released to culture medium ([4]; after incubation with PMA, untreated 6.5%±2.2%): 24.3%±3.6%

Molecule: Hemin
- Levels of IAP family proteins tested ([1]; Hemin negative control): did not regulate the levels
- CD41 expression levels ([3]; Hemin, erythroid differentiation negative control): did not increase CD41 expression levels

B1: wild-type Livin: Livin β (SEQ ID NO: 5 cDNA) over-expressed from pWZL IRES-blasticidin retroviral vector (protein, listed as Homo sapiens)
chain: MGPKDSAKCLHRGPQPSHWAAGDGPTQERCGPRSLGSPVLGLDTCRAWDHVDGQILGQLRPLTEEEEEEGAGATLSRGPAFPGMGSEELRLASFYDWPLTAEVPPELLAAAGFFHTGHQDKVRCFFCYGGLQSWKRGDDPWTEHAKWFPSCQFLLRSKGRDFVHSVQETHSQLLGSWDPWEEPEDAAPVAPSVPASGYPELPTPRREVQSESAQEPGARDVEAQLRRLQEERTCKVCLDRAVSIVFVPCGHLVCAECAPGLQLCPICRAPVRSRVRTFLS
- Cleavage of Livin (Western blot) ([1]; LAMA-84 over-expressing wild-type Livin, PMA, 96 h): underwent cleavage only at the terminal stage of differentiation
- Increase in percentage of CD41 stained cells compared to empty vector ([5]; day 14, SCF and TPO, p=0.029): 3.7±1 fold
- CD33 expression of differentiated CD41+ cells ([5]; day 14, n=9, control cells 7.4±6.9%): 22.6±39.8%
- Multi-nucleated MKs (≥4 nuclei) ([5]; day 14, versus LivinRING or empty vector (p=0.01 and 0.02)): significant increase
- Livin and tLivin protein levels (Western blot) ([5]; day 14, versus naive and empty vector CD34+ cultures): robust levels
- Platelet activity in response to arachidonic acid (CD62P up regulation) [6]: demonstrated activity
- Platelets produced (CD41+) compared to empty vector control [7]: 4.3±1 fold
- Caspase-3 enzyme activity [8]: induced caspase-3 activation
- Number of CD41+ PLPs versus control (empty vector) cells ([4]; day 4, PMA treated LAMA-84 over-expressing construct): produced more PLPs
